Patent publication US20260193319A1, “PLATELET-BINDING PROTEINS AND CONJUGATES THEREOF, PARTICLES COMPRISING THEM AND USES THEREOF” (Haima Therapeutics, LLC, priority 2022, published 2026)
Where “and” joins values, the source holds several entries; their conditions need not be identical. Equal entries are not always repeated. Where a SMILES comes first, the peptide text is derived from it. Bridges are numbered along the chain shown (N, C = ends). [ ]: non-standard residue; d: D form. Pra = C#CC[C@H](N)C(=O)O; βAla = NCCC(=O)O

Legend:
[1] = system: human platelets (PRP stimulated with ADP); experiment: Peptide inhibition of platelet aggregation, light transmission aggregometry in human PRP/ADP; type: cell-based; conditions: for Peptide Inhibition of Platelet Aggregation, pass/fail result: criterion: inhibition of platelet aggregation, FMP2 IC50 ≤ FMP1 IC50; for IC50: human PRP/ADP, final aggregation, log-dose vs response fit, approximate
Excerpt: The properties of the FMP2 peptide and peptide-decorated particles (synthetic platelet) were compared to those of the old FMP1 peptide. First, Chang et al. have shown that cyclic RGD peptides are able to selectively bind to activated platelets and prevent human platelet aggregation as measured via platelet light transmission aggregometry. This protocol was adapted and performed to compare the IC50 values of FMP1 and FMP2. Specifically, human whole blood was drawn from healthy, aspirin refraining donors via venipuncture into syringe containing 3.8% w/v sodium citrate. Platelet rich plasma (PRP) was obtained by centrifugation of whole blood in a tabletop centrifuge at 150×g for 15 minutes. Platelet aggregation experiments were performed with 225 μl of 25% o (v/v) diluted PRP stimulated with 25 μl of 10 μM adenosine 5′-diphosphate (ADP) (or saline as a negative control) on a Bio/Data PAP-8E Platelet Aggregation Profiler. 20 μl of saline containing 0.0001 μM to 250 μM of FMP1 or FMP2 (at each order of magnitude) were added to the 25% o diluted PRP, and final aggregation percentage was recorded. In GraphPad Prism®, a non-linear fit of log-dose vs. response was applied to the data, and the IC50 for each peptide was determined by calculating the intersection point at y=50.

[2] = molecular target: GPIIb/IIIa on active human platelets (human) (UniProt P08514); experiment: cell-based or functional assay
UniProt P08514, sequence (P08514 32-1039, chain 1 of 2): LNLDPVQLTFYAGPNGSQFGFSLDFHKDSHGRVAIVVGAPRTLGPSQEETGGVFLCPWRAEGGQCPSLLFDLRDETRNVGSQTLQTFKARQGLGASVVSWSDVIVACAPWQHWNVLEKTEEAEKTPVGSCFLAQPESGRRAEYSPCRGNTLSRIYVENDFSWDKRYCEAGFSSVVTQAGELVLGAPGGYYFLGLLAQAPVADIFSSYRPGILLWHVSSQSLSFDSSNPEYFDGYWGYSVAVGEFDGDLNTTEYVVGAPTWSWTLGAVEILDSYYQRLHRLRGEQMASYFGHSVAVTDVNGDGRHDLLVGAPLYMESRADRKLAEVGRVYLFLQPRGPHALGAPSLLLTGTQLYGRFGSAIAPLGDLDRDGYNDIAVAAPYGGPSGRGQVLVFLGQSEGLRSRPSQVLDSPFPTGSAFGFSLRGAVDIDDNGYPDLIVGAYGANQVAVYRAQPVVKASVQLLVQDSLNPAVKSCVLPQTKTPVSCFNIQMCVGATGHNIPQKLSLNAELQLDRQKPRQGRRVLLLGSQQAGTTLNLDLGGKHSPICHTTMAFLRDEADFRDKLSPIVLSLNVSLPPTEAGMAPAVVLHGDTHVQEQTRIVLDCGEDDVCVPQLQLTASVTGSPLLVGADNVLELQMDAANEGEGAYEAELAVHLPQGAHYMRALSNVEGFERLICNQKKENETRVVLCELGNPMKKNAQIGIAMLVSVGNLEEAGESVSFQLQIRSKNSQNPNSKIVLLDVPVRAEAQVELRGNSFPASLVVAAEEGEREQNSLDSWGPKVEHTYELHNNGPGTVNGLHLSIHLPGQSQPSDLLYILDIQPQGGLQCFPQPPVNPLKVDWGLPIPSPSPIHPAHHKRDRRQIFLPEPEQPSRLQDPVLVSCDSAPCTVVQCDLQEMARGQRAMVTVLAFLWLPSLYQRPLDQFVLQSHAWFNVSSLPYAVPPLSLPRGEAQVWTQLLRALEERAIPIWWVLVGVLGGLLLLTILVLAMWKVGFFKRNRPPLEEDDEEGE
UniProt P08514, sequence (P05106 27-788, chain 2 of 2, further chain): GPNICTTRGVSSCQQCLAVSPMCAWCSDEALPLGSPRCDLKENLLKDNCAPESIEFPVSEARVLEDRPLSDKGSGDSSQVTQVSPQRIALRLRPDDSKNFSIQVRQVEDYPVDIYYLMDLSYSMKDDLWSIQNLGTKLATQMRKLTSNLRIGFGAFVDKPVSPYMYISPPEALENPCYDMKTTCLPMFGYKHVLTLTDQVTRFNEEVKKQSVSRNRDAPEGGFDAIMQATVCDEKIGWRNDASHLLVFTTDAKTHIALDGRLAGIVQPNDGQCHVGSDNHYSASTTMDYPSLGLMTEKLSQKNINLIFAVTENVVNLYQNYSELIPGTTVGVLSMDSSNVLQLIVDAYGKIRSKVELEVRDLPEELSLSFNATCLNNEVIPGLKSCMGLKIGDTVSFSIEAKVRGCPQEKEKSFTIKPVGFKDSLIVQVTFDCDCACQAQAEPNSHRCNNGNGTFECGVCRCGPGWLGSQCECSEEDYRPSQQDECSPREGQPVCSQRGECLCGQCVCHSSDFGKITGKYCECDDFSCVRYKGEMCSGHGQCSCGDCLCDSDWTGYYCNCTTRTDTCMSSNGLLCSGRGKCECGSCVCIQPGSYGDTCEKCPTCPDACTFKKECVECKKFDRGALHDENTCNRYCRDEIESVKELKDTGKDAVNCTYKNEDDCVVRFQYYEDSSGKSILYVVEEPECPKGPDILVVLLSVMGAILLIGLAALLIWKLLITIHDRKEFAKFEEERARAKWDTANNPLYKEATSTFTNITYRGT

IC50 of inhibition of ADP-stimulated human platelet aggregation (light transmission aggregometry, diluted PRP, final aggregation %) [2]	Molecule	Peptide Inhibition of Platelet Aggregation, pass/fail result [1]	IC50 [1]	concentrations inhibiting platelet aggregation, FMP2 relative to FMP1 ([1]; comparison of IC50)
–	C#CC[C@H](N)C(=O)N[C@H]1CSSC[C@@H](C(=O)O)NC(=O)[C@H](CCCNC(=N)N)NC(=O)[C@H](Cc2ccc(OCC)cc2)NC(=O)[C@H](CC(=O)O)NC(=O)CNC(=O)[C@H](CCCNC(=N)N)NC(=O)[C@@H]2CCCN2C(=O)[C@H](CC(N)=O)NC1=O [FMP1, cyclo-{Pra}CNPRGD{Tyr(OEt)}RC, reference compound] (H-[Pra]CNPRGDY(Et)RC-OH; disulfide 2-10; N-terminus and C-terminus assumed)	Pass	~537 µM and 537 µM	–
–	CCOc1ccc(C[C@@H]2NC(=O)[C@H](CC(=O)O)NC(=O)CNC(=O)[C@H](CCCNC(=N)N)NC(=O)[C@@H]3CCCN3C(=O)[C@H](CC(N)=O)NC(=O)[C@H](CS)NC(=O)CCNC(=O)[C@H](CCCNC(=N)N)NC2=O)cc1 [FMP2, cyclo-(CNPRGD{Tyr(OEt)}R-β-A)] (cyclo(CNPRGDY(Et)R[βAla]))	Pass	~0.13 µM and 0.13 µM	over three orders of magnitude below FMP1
537 µM	FMP1, cyclo-{Pra}CNPRGD{Tyr(OEt)}RC trifluoroacetate salt (peptide)	–	–	–
0.13 µM	FMP2, cyclo-(CNPRGD{Tyr(OEt)}R-β-A) trifluoroacetate salt (peptide)	–	–	–
